IC50 data for 21 molecules are collected here from patent US12435060B2, “Acylamino bridged heterocyclic compound, and composition and application thereof” (BEIJING SCITECH-MQ PHARMACEUTICALS LIMITED, priority 2019, dated 2025).

This experiment deals with HT29 cells. The experiment is described as follows: Inhibition of cell necrosis (CCK8 method), induced programmed necrosis of HT29 cells. The experiment is classed as cell-based. Conditions: Homo sapiens, HT-29; rescue from necrosis induced by TNF-α 20 ng/mL, AT-406 1 μM, Z-VAD-FMK 20 μM; 16-20 hours; CCK-8, OD 450 nm. The gist of the method:
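Rescue from programmed necrosis was scored by CCK-8 absorbance at 450 nm after 16-20 h of TNF-α (20 ng/mL), AT-406 (1 μM) and Z-VAD-FMK (20 μM) at 37 °C, 5% CO2. HT29 cells had received compound 30 min earlier across nine 4-fold dilutions (top 25000 nM final). IC50 came from % inhibition relative to uninduced and induced-only wells.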
Background: Tetrazolium dyes change colour on reduction, which living cells bring about.

By IC50 is commonly meant the concentration needed to halve the response being measured. A high value points to weaker potency in that assay. Regarding `Cc1cc(Cc2nnc(C(=O)Nc3cc(-c4cc(OCCCC(C)(C)O)ccc4Cl)ccn3)[nH]2)ccc1F` [Example 345, N-(4-(2-chloro-5-((4-hydroxy-4-methylpentyl)oxy)phenyl)pyridin-2-yl)-5-(4-fluoro-3-methylbenzyl)-4H-1,2,4-triazole-3-carboxamide], the IC50 is 100 to 1000 nM. The value for `CC(C)(O)CCCOc1ccc(Cl)c(-c2ccnc(NC(=O)c3nnc(Cc4cccc(C(F)(F)F)c4F)[nH]3)c2)c1` [Example 346, N-(4-(2-chloro-5-((4-hydroxy-4-methylpentyl)oxy)phenyl)pyridin-2-yl)-5-(2-fluoro-3-(trifluoromethyl)benzyl)-4H-1,2,4-triazole-3-carboxamide] was 100 to 1000 nM. Then `CC(C)(O)CCCOc1ccc(Cl)c(-c2ccnc(NC(=O)c3nnc(Cc4cc(C(F)(F)F)ccc4F)[nH]3)c2)c1` [Example 347, N-(4-(2-chloro-5-((4-hydroxy-4-methylpentyl)oxy)phenyl)pyridin-2-yl)-5-(2-fluoro-5-(trifluoromethyl)benzyl)-4H-1,2,4-triazole-3-carboxamide], with 100 to 1000 nM; and `CC(C)(O)CCCOc1ccc(Cl)c(-c2ccnc(NC(=O)c3nnc(Cc4cc(F)cc(C(F)(F)F)c4)[nH]3)c2)c1` [Example 348, N-(4-(2-chloro-5-((4-hydroxy-4-methylpentyl)oxy)phenyl)pyridin-2-yl)-5-(3-fluoro-5-(trifluoromethyl)benzyl)-4H-1,2,4-triazole-3-carboxamide], with 1000 to 10000 nM. With `CC(C)(O)CCCOc1ccc(Cl)c(-c2ccnc(NC(=O)c3nnc(Cc4ccc(F)c(C(F)(F)F)c4)[nH]3)c2)c1` [Example 349, N-(4-(2-chloro-5-((4-hydroxy-4-methylpentyl)oxy)phenyl)pyridin-2-yl)-5-(4-fluoro-3-(trifluoromethyl)benzyl)-4H-1,2,4-triazole-3-carboxamide], the IC50 is more than 10000 nM. Then `CCc1ccc(F)c(Cc2nnc(C(=O)Nc3cc(-c4cc(OCCCC(C)(C)O)ccc4Cl)ccn3)[nH]2)c1` [Example 350, N-(4-(2-chloro-5-((4-hydroxy-4-methylpentyl)oxy)phenyl)pyridin-2-yl)-5-(5-ethyl-2-fluorobenzyl)-4H-1,2,4-triazole-3-carboxamide], with 100 to 1000 nM; and `CC(C)(O)CCCOc1ccc(Cl)c(-c2ccnc(NC(=O)c3nnc(Cc4ccc(F)c(F)c4F)[nH]3)c2)c1` [Example 351, N-(4-(2-chloro-5-((4-hydroxy-4-methylpentyl)oxy)phenyl)pyridin-2-yl)-5-(2,3,4-trifluorobenzyl)-4H-1,2,4-triazole-3-carboxamide], with 100 to 1000 nM; and `CC(C)(O)CCCOc1ccc(Cl)c(-c2ccnc(NC(=O)c3nnc(Cc4cc(F)cc(F)c4F)[nH]3)c2)c1` [Example 352, N-(4-(2-chloro-5-((4-hydroxy-4-methylpentyl)oxy)phenyl)pyridin-2-yl)-5-(2,3,5-trifluorobenzyl)-4H-1,2,4-triazole-3-carboxamide], with 100 to 1000 nM. Then `CC(C)(O)CCCOc1ccc(Cl)c(-c2ccnc(NC(=O)c3nnc(Cc4c(F)ccc(F)c4F)[nH]3)c2)c1` [Example 353, N-(4-(2-chloro-5-((4-hydroxy-4-methylpentyl)oxy)phenyl)pyridin-2-yl)-5-(2,3,6-trifluorobenzyl)-4H-1,2,4-triazole-3-carboxamide], with not above 100 nM.

The molecule `CC(C)(O)CCCOc1ccc(Cl)c(-c2ccnc(NC(=O)c3nnc(Cc4cc(F)c(F)c(F)c4)[nH]3)c2)c1` [Example 354, N-(4-(2-chloro-5-((4-hydroxy-4-methylpentyl)oxy)phenyl)pyridin-2-yl)-5-(3,4,5-trifluorobenzyl)-4H-1,2,4-triazole-3-carboxamide] displayed an IC50 of 100 to 1000 nM. The value for `CC(C)(O)CCCOc1ccc(Cl)c(-c2ccnc(NC(=O)c3nnc(Cc4cc(F)c(F)cc4F)[nH]3)c2)c1` [Example 355, N-(4-(2-chloro-5-((4-hydroxy-4-methylpentyl)oxy)phenyl)pyridin-2-yl)-5-(2,4,5-trifluorobenzyl)-4H-1,2,4-triazole-3-carboxamide] was 100 to 1000 nM. The value for `CC(C)(O)CCCOc1ccc(Cl)c(-c2ccnc(NC(=O)c3nnc(CC4CCCC4)[nH]3)c2)c1` [Example 356, N-(4-(2-chloro-5-((4-hydroxy-4-methylpentyl)oxy)phenyl)pyridin-2-yl)-5-(cyclopentylmethyl)-4H-1,2,4-triazole-3-carboxamide] was not above 100 nM; that for `CC(C)(O)CCCOc1ccc(Cl)c(-c2ccnc(NC(=O)c3nnc(CC4CCCCC4)[nH]3)c2)c1` [Example 357, N-(4-(2-chloro-5-((4-hydroxy-4-methylpentyl)oxy)phenyl)pyridin-2-yl)-5-(cyclohexylmethyl)-4H-1,2,4-triazole-3-carboxamide] was not above 100 nM; that for `CC(C)(O)CCCOc1ccc(Cl)c(-c2ccnc(NC(=O)c3nnc(CN4CCCC4)[nH]3)c2)c1` [Example 358, N-(4-(2-chloro-5-((4-hydroxy-4-methylpentyl)oxy)phenyl)pyridin-2-yl)-5-(pyrrolidin-1-ylmethyl)-4H-1,2,4-triazole-3-carboxamide] was more than 10000 nM. Then `CCC(O)(CC)CCCOc1ccc(Cl)c(-c2ccnc(NC(=O)c3nnc(Cc4ccccc4)[nH]3)c2)c1` [Example 359, 5-benzyl-N-(4-(2-chloro-5-((4-ethyl-4-hydroxyhexyl)oxy)phenyl)pyridin-2-yl)-4H-1,2,4-triazole-3-carboxamide], with not above 100 nM; and `CCC(O)(CC)CCCOc1ccc(Cl)c(-c2ccnc(NC(=O)c3nnc(Cc4ccccc4F)[nH]3)c2)c1` [Example 360, N-(4-(2-chloro-5-((4-ethyl-4-hydroxyhexyl)oxy)phenyl)pyridin-2-yl)-5-(2-fluorobenzyl)-4H-1,2,4-triazole-3-carboxamide], with not above 100 nM. `CCC(O)(CC)CCCOc1ccc(Cl)c(-c2ccnc(NC(=O)c3nnc(CC4CCCC4)[nH]3)c2)c1` [Example 361, N-(4-(2-chloro-5-((4-ethyl-4-hydroxyhexyl)oxy)phenyl)pyridin-2-yl)-5-(cyclopentylmethyl)-4H-1,2,4-triazole-3-carboxamide] registered an IC50 not above 100 nM. The value for `CCC(O)(CC)CCCOc1ccc(Cl)c(-c2ccnc(NC(=O)c3nnc(CC4CCCCC4)[nH]3)c2)c1` [Example 362, N-(4-(2-chloro-5-((4-ethyl-4-hydroxyhexyl)oxy)phenyl)pyridin-2-yl)-5-(cyclohexylmethyl)-4H-1,2,4-triazole-3-carboxamide] was not above 100 nM; that for `CC(C)(O)COc1ccc(Cl)c(-c2ccnc(NC(=O)c3nnc(Cc4ccccc4)[nH]3)c2)c1` [Example 363, 5-benzyl-N-(4-(2-chloro-5-(2-hydroxyl-2-methylpropoxy)phenyl)pyridin-2-yl)-4H-1,2,4-triazole-3-carboxamide] was not above 100 nM.

As to `CC(C)(O)COc1ccc(Cl)c(-c2ccnc(NC(=O)c3nnc(Cc4ccccc4F)[nH]3)c2)c1` [Example 364, 5-(2-fluorobenzyl)-N-(4-(2-chloro-5-(2-hydroxyl-2-methylpropoxy)phenyl)pyridin-2-yl)-4H-1,2,4-triazole-3-carboxamide], the IC50 was not above 100 nM. Then `CC(C)(O)COc1ccc(Cl)c(-c2ccnc(NC(=O)c3nnc(CC4CCCC4)[nH]3)c2)c1` [Example 365, N-(4-(2-chloro-5-(2-hydroxyl-2-methylpropoxy)phenyl)pyridin-2-yl)-5-(cyclopentylmethyl)-4H-1,2,4-triazole-3-carboxamide], with not above 100 nM.
